# Source: patent US12077503B2, “Substituted cyclic amides and their use as herbicides” (FMC CORPORATION, priority 2015, dated 2024)
# Tests used:
# Assay type in all cases: in vivo
# [1] = tested on: giant foxtail (Setaria faberii); assay: Test A postemergence; details: Setaria faberi, post-emergence, 240 h
# In short: (§1)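 Preemergence directed soil spray on seeded pots, or postemergence application to plants 2–10 cm, one- to two-leaf. Solvent mixture non-phytotoxic, with surfactant. Scored ~10 d later, visually, 0–100 vs untreated.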
# [2] = tested on: barnyardgrass (Echinochloa crus-galli); assay: Test A postemergence; details: Echinochloa crus-galli, post-emergence, 240 h
# In short: as §1
# [3] = tested on: ragweed (common ragweed, Ambrosia elatior); assay: Test A postemergence; details: Ambrosia artemisiifolia, post-emergence, 240 h
# In short: as §1
# corn (Zea mays) = assay: Test A postemergence; details: Zea mays, post-emergence, 240 h
# In short: as §1
# [4] = tested on: ryegrass, Italian (Italian ryegrass, Lolium multiflorum); assay: Test A postemergence; details: Lolium multiflorum, post-emergence, 240 h
# In short: as §1
# [5] = tested on: blackgrass (Alopecurus myosuroides); assay: Test A postemergence; details: Alopecurus myosuroides, post-emergence, 240 h
# In short: as §1
# [6] = tested on: pigweed (Amaranthus retroflexus); assay: Test A postemergence; details: Amaranthus retroflexus, post-emergence, 240 h
# In short: as §1
# Kochia (Kochia scoparia) [7] = assay: Test A postemergence; details: Bassia scoparia, post-emergence, 240 h
# In short: as §1
# [8] = tested on: wheat (Triticum aestivum); assay: Test A postemergence; details: Triticum aestivum, post-emergence, 240 h
# In short: as §1
# [9] = tested on: Galium (catchweed bedstraw, Galium aparine); assay: Test A postemergence; details: Galium, post-emergence, 240 h
# In short: as §1
# [10] = tested on: giant foxtail (Setaria faberii); assay: Test A preemergence; details: Setaria faberi, pre-emergence, 240 h, 0 to 100 scale where 0 is no effect and 100 is complete control, read-out: Foxtail, Giant plant response rating
# In short: as §1
# [11] = tested on: barnyardgrass (Echinochloa crus-galli); assay: Test A preemergence; details: Echinochloa crus-galli, pre-emergence, 240 h, 0 to 100 scale where 0 is no effect and 100 is complete control, read-out: Barnyardgrass plant response rating
# In short: as §1
# [12] = tested on: ragweed (common ragweed, Ambrosia elatior); assay: Test A preemergence; details: Ambrosia artemisiifolia, pre-emergence, 240 h, 0 to 100 scale where 0 is no effect and 100 is complete control, read-out: Ragweed plant response rating
# In short: as §1
# [13] = tested on: ryegrass, Italian (Italian ryegrass, Lolium multiflorum); assay: Test A preemergence; details: Lolium multiflorum, pre-emergence, 240 h, 0 to 100 scale where 0 is no effect and 100 is complete control, read-out: Ryegrass, Italian plant response rating
# In short: as §1
# [14] = tested on: pigweed (Amaranthus retroflexus); assay: Test A preemergence; details: Amaranthus retroflexus, pre-emergence, 240 h, 0 to 100 scale where 0 is no effect and 100 is complete control, read-out: Pigweed plant response rating
# Kochia (Kochia scoparia) [15] = assay: Test A preemergence; details: Bassia scoparia, pre-emergence, 240 h, 0 to 100 scale where 0 is no effect and 100 is complete control, read-out: Kochia plant response rating
# In short: as §1
# [16] = tested on: ducksalad (Heteranthera limosa); assay: Test B flooded paddy test; details: Heteranthera limosa, 250 g ai/ha, Flood; 0 to 100 scale where 0 is no effect and 100 is complete control; read-out: Ducksalad plant response rating
# In short: (§2)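 Plants at 2-leaf stage flooded to 3 cm above soil, with compounds applied directly to paddy water and that depth maintained. Plants kept in greenhouse 13–15 d. Visual rating versus controls on a 0 (no effect) to 100 (complete control) scale.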
# [17] = tested on: barnyardgrass (Echinochloa crus-galli); assay: Test B flooded paddy test; details: Echinochloa crus-galli, 250 g ai/ha, Flood; 0 to 100 scale where 0 is no effect and 100 is complete control; read-out: Barnyardgrass plant response rating
# In short: as §2
# [18] = tested on: sedge, umbrella (small-flower umbrella sedge, Cyperus difformis); assay: Test B flooded paddy test; details: Cyperus difformis, 250 g ai/ha, Flood; 0 to 100 scale where 0 is no effect and 100 is complete control; read-out: Sedge, Umbrella plant response rating
# In short: as §2
# rice (Oryra sativa) = assay: Test B flooded paddy test; details: Oryza sativa, 250 g ai/ha, Flood; 0 to 100 scale where 0 is no effect and 100 is complete control; read-out: Rice plant response rating
# In short: as §2
# [19] = 125 g ai/ha, preemergence, approx. 10 d
smiles,measurement,setting,value
CN1C[C@H](c2cc(C(F)F)cs2)[C@@H](C(=O)Nc2cnccc2C(F)(F)F)C1=O [Compound 1091],pest or weed control at 125 g/ha,"[1]; 125 g ai/ha, postemergence, visual injury on 0 to 100 scale (0 no effect, 100 complete control), approx. 10 d, read-out: Foxtail, Giant plant response rating",0%
same,pest or weed control at 31 g/ha,"[1]; Postemergence, 31 g ai/ha, visual injury after approx. 10 d, 0 to 100 scale, 0 no effect, 100 complete control, read-out: Plant response rating, Foxtail, Giant",0%
same,pest or weed control at 125 g/ha,"[2]; 125 g ai/ha, postemergence, visual injury on 0 to 100 scale (0 no effect, 100 complete control), approx. 10 d, read-out: Barnyardgrass plant response rating",0%
same,pest or weed control at 31 g/ha,"[2]; Postemergence, 31 g ai/ha, visual injury after approx. 10 d, 0 to 100 scale, 0 no effect, 100 complete control, read-out: Plant response rating, Barnyardgrass",0%
same,pest or weed control at 125 g/ha,"[3]; 125 g ai/ha, postemergence, visual injury on 0 to 100 scale (0 no effect, 100 complete control), approx. 10 d, read-out: Ragweed plant response rating",0%
same,pest or weed control at 31 g/ha,"[3]; Postemergence, 31 g ai/ha, visual injury after approx. 10 d, 0 to 100 scale, 0 no effect, 100 complete control, read-out: Plant response rating, Ragweed",0%
same,plant injury at 125 g/ha,"corn (Zea mays); 125 g ai/ha, postemergence, visual injury on 0 to 100 scale (0 no effect, 100 complete control), approx. 10 d, read-out: Corn plant response rating",0%
same,"Corn plant response rating (crop injury, 0 = no effect, 100 = complete kill) at 31 g/ha","corn (Zea mays); Postemergence, 31 g ai/ha, visual injury after approx. 10 d, 0 to 100 scale, 0 no effect, 100 complete control",0%
same,pest or weed control at 125 g/ha,"[4]; 125 g ai/ha, postemergence, visual injury on 0 to 100 scale (0 no effect, 100 complete control), approx. 10 d, read-out: Ryegrass, Italian plant response rating",0%
same,pest or weed control at 31 g/ha,"[4]; Postemergence, 31 g ai/ha, visual injury after approx. 10 d, 0 to 100 scale, 0 no effect, 100 complete control, read-out: Plant response rating, Ryegrass, Italian",0%
same,pest or weed control at 125 g/ha,"[5]; 125 g ai/ha, postemergence, visual injury on 0 to 100 scale (0 no effect, 100 complete control), approx. 10 d, read-out: Blackgrass plant response rating",0%
same,pest or weed control at 31 g/ha,"[5]; Postemergence, 31 g ai/ha, visual injury after approx. 10 d, 0 to 100 scale, 0 no effect, 100 complete control, read-out: Plant response rating, Blackgrass",0%
same,pest or weed control at 125 g/ha,"[6]; 125 g ai/ha, postemergence, visual injury on 0 to 100 scale (0 no effect, 100 complete control), approx. 10 d, read-out: Pigweed plant response rating",30%
same,pest or weed control at 31 g/ha,"[6]; Postemergence, 31 g ai/ha, visual injury after approx. 10 d, 0 to 100 scale, 0 no effect, 100 complete control, read-out: Plant response rating, Pigweed",0%
same,pest or weed control at 125 g/ha,"Kochia (Kochia scoparia) [7]; 125 g ai/ha, postemergence, visual injury on 0 to 100 scale (0 no effect, 100 complete control), approx. 10 d, read-out: Kochia plant response rating",0%
same,pest or weed control at 31 g/ha,"Kochia (Kochia scoparia) [7]; Postemergence, 31 g ai/ha, visual injury after approx. 10 d, 0 to 100 scale, 0 no effect, 100 complete control, read-out: Plant response rating, Kochia",0%
same,plant injury at 125 g/ha,"[8]; 125 g ai/ha, postemergence, visual injury on 0 to 100 scale (0 no effect, 100 complete control), approx. 10 d, read-out: Wheat plant response rating",0%
same,plant injury at 31 g/ha,"[8]; Postemergence, 31 g ai/ha, visual injury after approx. 10 d, 0 to 100 scale, 0 no effect, 100 complete control, read-out: Plant response rating, Wheat",0%
same,pest or weed control at 125 g/ha,"[9]; 125 g ai/ha, postemergence, visual injury on 0 to 100 scale (0 no effect, 100 complete control), approx. 10 d, read-out: Galium plant response rating",0%
same,pest or weed control at 31 g/ha,"[9]; Postemergence, 31 g ai/ha, visual injury after approx. 10 d, 0 to 100 scale, 0 no effect, 100 complete control, read-out: Plant response rating, Galium",0%
same,pest or weed control at 31 g/ha,"[10]; 31 g ai/ha, Preemergence",50%
same,pest or weed control at 125 g/ha,[10]; [19],100%
same,pest or weed control at 31 g/ha,"[11]; 31 g ai/ha, Preemergence",0%
same,pest or weed control at 125 g/ha,[11]; [19],0%
same,pest or weed control at 31 g/ha,"[12]; 31 g ai/ha, Preemergence",100%
same,pest or weed control at 125 g/ha,[12]; [19],0%
same,pest or weed control at 31 g/ha,"[13]; 31 g ai/ha, Preemergence",0%
same,pest or weed control at 125 g/ha,[13]; [19],0%
same,pest or weed control at 31 g/ha,"[14]; 31 g ai/ha, Preemergence",10%
same,pest or weed control at 125 g/ha,[14]; [19],0%
same,pest or weed control at 31 g/ha,"Kochia (Kochia scoparia) [15]; 31 g ai/ha, Preemergence",20%
same,pest or weed control at 125 g/ha,Kochia (Kochia scoparia) [15]; [19],40%
same,pest or weed control at 250 g/ha,[16],0%
same,pest or weed control at 250 g/ha,[17],0%
same,pest or weed control at 250 g/ha,[18],0%
same,pest or weed control at 250 g/ha,rice (Oryra sativa),0%
